Results taken from US9810690B2, “Method for screening inhibitors of Ras” (Araxes Pharma LLC, priority 2015, dated 2017).

How the values were obtained:
Assay type in all cases: binding
KRAS D92C/G12D = target: T1, KRAS D92C/G12D (Homo sapiens, UniProt P01116, D92C/G12D); assay: Covalent modification of KRAS mutant by competition probes (TOF mass spectrometry, Agilent RapidFire)
T1 construct: made in house
Method: (§1) KRAS mutant proteins were produced with one substituted amino acid selected from E62C, D92C, and H95C and with either glycine at the 12 position (WT) or an additional mutation to aspartic acid at the 12 position (G12D) relative to SEQ ID NO: 1 when optimally aligned. These mutations are depicted on an X-ray crystal structure in FIG. 2. These mutants were tested for reactivity (e.g., covalent modification of the KRAS mutant) with a panel of competition probes that bind the Switch II binding pocket and covalently modify the substituted amino acid with appropriately placed electrophiles based on modeling/docking studies. Screening was carried out by time-of-flight (TOF) mass spectrometry on an Agilent RapidFire system. […] Competition probe reactivity with the G12D mutant or other 12 position mutants may be optimized by iterative structural modification and testing.

KRAS D92C/WT = target: T2, KRAS D92C/WT (Homo sapiens, UniProt P01116, D92C); assay: as above
T2 construct: made in house
Method: as §1

KRAS E62C/G12D = target: T3, KRAS E62C/G12D (Homo sapiens, UniProt P01116, E62C/G12D); assay: as above
T3 construct: made in house
Method: as §1

KRAS E62C/WT = target: T4, KRAS E62C/WT (Homo sapiens, UniProt P01116, E62C); assay: as above
T4 construct: made in house
Method: as §1

KRAS H95C/G12D = target: T5, KRAS H95C/G12D (Homo sapiens, UniProt P01116, G12D/H95C); assay: as above
T5 construct: made in house
Method: as §1

KRAS H95C/WT = target: T6, KRAS H95C/WT (Homo sapiens, UniProt P01116, H95C); assay: as above
T6 construct: made in house
Method: as §1

RALA G23C = target: T7, RALA G23C (Homo sapiens, UniProt P11233, G23C); assay: Rate constant of covalent reaction of competition probes with RALA mutant (mass spectrometry)
T7 construct: (residues 11-183, either WT or G23C); hexahistidine (TEV-cleavable); made in house; host or cells: Escherichia coli BL21 (DE)
T7 sequence (P11233 11-183 G23C): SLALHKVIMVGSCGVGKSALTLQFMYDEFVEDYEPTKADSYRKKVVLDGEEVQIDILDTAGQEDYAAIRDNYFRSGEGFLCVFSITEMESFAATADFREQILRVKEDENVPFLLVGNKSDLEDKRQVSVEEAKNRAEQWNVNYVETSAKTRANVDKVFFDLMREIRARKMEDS
Method: Hexahistidine-tagged recombinant human RalA (“hexahistidine” disclosed as SEQ ID NO: 49) (residues 11-183, either WT or G23C) was transformed into Escherichia coli (BL21 (DE)). After the bacterial grew to an OD(600) of 0.4-0.6 in Terrific Broth containing 30 mg/L kanamycin at 37° C., induction was carried out at 18° C. using 0.5 mM IPTG and growth was continued at 18° C. for about 18 h. The bacteria were harvested by centrifugation and the obtained pellet was either stored at −80° C. or used freshly for the subsequent steps.
(§2) RALA mutant proteins were produced with one mutation to cysteine at the 23 position (G23C) relative to SEQ ID NO: 8 when optimally aligned. KRAS mutant proteins were produced with one mutation to cysteine at the 12 position (G12C) relative to SEQ ID NO: 1 when optimally aligned. The RALA and KRAS mutants were tested for reactivity (e.g., covalent modification of the mutant) with a panel of competition probes that bind the Switch II binding pocket and covalently modify the substituted amino acid with appropriately placed electrophiles based on modeling/docking studies. One such inhibitor covalently bound to RAS (via G12) is depicted in FIG. 2. Screening was carried out by mass spectrometry on an Agilent RapidFire or ThermoScientific Q Exactive system.

KRAS G12C = target: T8, KRAS G12C (Homo sapiens, UniProt P01116, G12C); assay: Rate constant of covalent reaction of competition probes with KRAS mutant (mass spectrometry)
T8 construct: made in house
Method: as §2

Row | Structure (SMILES) | % Covalent Modification with Indicated Protein at 6 hr, D92C/G12D (KRAS D92C/G12D; probe 30 μM) [%] | % Covalent Modification with Indicated Protein at 6 hr, D92C/WT (KRAS D92C/WT; probe 30 μM) [%] | % Covalent Modification with Indicated Protein at 6 hr, E62C/G12D (KRAS E62C/G12D; probe 30 μM) [%] | % Covalent Modification with Indicated Protein at 6 hr, E62C/WT (KRAS E62C/WT; probe 30 μM) [%] | % Covalent Modification with Indicated Protein at 6 hr, H95C/G12D (KRAS H95C/G12D; probe 30 μM) [%] | Rate Constant for Reaction with Indicated Protein, RALA G23C (RALA G23C) [M⁻¹ s⁻¹] | Rate Constant for Reaction with Indicated Protein, KRAS G12C (KRAS G12C) [M⁻¹ s⁻¹] | also measured
1 | C=CS(=O)(=O)NC1CCCN(c2nc(N3CCN(C(C)=O)CC3)c3cc(Cl)c(-c4c(O)cccc4F)c(F)c3n2)C1 (centres unmarked) [CP-001] | 12 | 97 | 4 | 72 | 60 |  |  | 
2 | C=CC(=O)NC1CCCN(c2nc(N3CCN(C(C)=O)CC3)c3cc(Cl)c(-c4c(O)cccc4F)c(F)c3n2)C1 (centres unmarked) [CP-002] |  |  |  |  |  |  |  | % Covalent Modification with Indicated Protein at 6 hr, D92C/WT (KRAS D92C/WT; probe 100 μM): 2%; % Covalent Modification with Indicated Protein at 6 hr, E62C/G12D (KRAS E62C/G12D; probe 100 μM): 1%; % Covalent Modification with Indicated Protein at 6 hr, E62C/WT (KRAS E62C/WT; probe 100 μM): 6%; % Covalent Modification with Indicated Protein at 6 hr, H95C/G12D (KRAS H95C/G12D; probe 100 μM): 5%
3 | C=CS(=O)(=O)NC1CCN(c2nc(N3CCN(C(C)=O)CC3)c3cc(Cl)c(-c4c(O)cccc4F)c(F)c3n2)C1 (centres unmarked) [CP-003] | 8 | 89 | 11 | 86 | 12 |  |  | 
4 | C=CC(=O)NC1CCN(c2nc(N3CCN(C(C)=O)CC3)c3cc(Cl)c(-c4c(O)cccc4F)c(F)c3n2)C1 (centres unmarked) [CP-004] |  |  |  |  |  |  |  | % Covalent Modification with Indicated Protein at 6 hr, D92C/WT (KRAS D92C/WT; probe 100 μM): 4%; % Covalent Modification with Indicated Protein at 6 hr, E62C/G12D (KRAS E62C/G12D; probe 100 μM): 1%; % Covalent Modification with Indicated Protein at 6 hr, E62C/WT (KRAS E62C/WT; probe 100 μM): 3%; % Covalent Modification with Indicated Protein at 6 hr, H95C/G12D (KRAS H95C/G12D; probe 100 μM): 2%
5 | C=CS(=O)(=O)N1CCC(Nc2nc(N3CCN(C(C)=O)CC3)c3cc(Cl)c(-c4c(O)cccc4F)c(F)c3n2)CC1 [CP-005] | 11 | 28 | 6 | 82 | 12 |  |  | % Covalent Modification with Indicated Protein at 6 hr, H95C/WT (KRAS H95C/WT; probe 30 μM): 21%
6 | C=CS(=O)(=O)N1CCC(Nc2nc(N3CCN(C(C)=O)CC3)c3cc(Cl)c(-c4c(O)cccc4F)c(F)c3n2)C1 (centres unmarked) [CP-007] |  |  |  |  |  |  |  | % Covalent Modification with Indicated Protein at 6 hr, D92C/G12D (KRAS D92C/G12D; probe 10 μM): 29%; % Covalent Modification with Indicated Protein at 6 hr, D92C/WT (KRAS D92C/WT; probe 10 μM): 99%; % Covalent Modification with Indicated Protein at 6 hr, E62C/G12D (KRAS E62C/G12D; probe 10 μM): 19%; % Covalent Modification with Indicated Protein at 6 hr, E62C/WT (KRAS E62C/WT; probe 10 μM): 96%; % Covalent Modification with Indicated Protein at 6 hr, H95C/G12D (KRAS H95C/G12D; probe 10 μM): 17%; % Covalent Modification with Indicated Protein at 6 hr, H95C/WT (KRAS H95C/WT; probe 10 μM): 43%

Now from value to compound, other results behind:

Row | % Covalent Modification with Indicated Protein at 6 hr, D92C/G12D (KRAS D92C/G12D; probe 30 μM) [%] | % Covalent Modification with Indicated Protein at 6 hr, D92C/WT (KRAS D92C/WT; probe 30 μM) [%] | % Covalent Modification with Indicated Protein at 6 hr, E62C/G12D (KRAS E62C/G12D; probe 30 μM) [%] | % Covalent Modification with Indicated Protein at 6 hr, E62C/WT (KRAS E62C/WT; probe 30 μM) [%] | % Covalent Modification with Indicated Protein at 6 hr, H95C/G12D (KRAS H95C/G12D; probe 30 μM) [%] | Rate Constant for Reaction with Indicated Protein, RALA G23C (RALA G23C) [M⁻¹ s⁻¹] | Rate Constant for Reaction with Indicated Protein, KRAS G12C (KRAS G12C) [M⁻¹ s⁻¹] | Structure (SMILES) | also measured
7 | 5 | 93 | 2 | 14 | 4 |  |  | C=CC(=O)N1CCC(Nc2nc(N3CCN(C(C)=O)CC3)c3cc(Cl)c(-c4c(O)cccc4F)c(F)c3n2)C1 (centres unmarked) [CP-006] | % Covalent Modification with Indicated Protein at 6 hr, H95C/WT (KRAS H95C/WT; probe 30 μM): 19%
8 |  |  |  |  |  | <0.2 | 76 | C=CC(=O)N1CC(N2CCN(C(=O)CNc3cc(C4(C)CC4)c(Cl)cc3O)CC2)C1 [CP-008] | 
9 |  |  |  |  |  | <0.2 | 5.8 | C=CC(=O)N1CCN(c2ccc(-c3cc(O)ccc3Cl)cc2C#N)CC1 [CP-009] | 
10 |  |  |  |  |  | 2.9 | 2.3 | C=CC(=O)N1CCN(C(=O)c2cc(-c3cc(Cl)ccc3Cl)c(Cl)cc2O)CC1 [CP-010] | 
11 |  |  |  |  |  | 5.0 | 1.1 | C=CC(=O)N1CCN(c2ncnc3cc(Cl)c(-c4ccccc4Cl)cc23)CC1 [CP-011] | 
